{
  "source": "paper PMC10810651",
  "about": "“Discovery of novel and potent CDK8 inhibitors for the treatment of acute myeloid leukaemia” (Journal of Enzyme Inhibition and Medicinal Chemistry, 2024)",
  "key": {"[1]": {"molecular_target": "T1, CDK8 (Homo sapiens, UniProt P49336)", "assay": "Cellular thermal shift assay", "type": "cell-based", "parameters": "endogenous in cells; host or cells: HCT-116", "conditions": "HCT-116 cells, 5 μM, 6 h; DMSO 49 °C; western blot", "experimental": "Here, in order to identify compound 12 could bind CDK8, HCT-116 cells, a CDK8 high expression cell line, were treated with 5 μM compound 12 and DMSO for 6 h, respectively. Cell suspension was divided into 11 PCR tubes equally, then the samples were heated from 37 to 67 °C at intervals of 3 °C and the results were analysed through western blot. […] However, CDK8 was degraded almost completely at 55 °C after treated with compound 12, which indicated compound 12 enhanced the thermal stability of CDK8 and compound 12 could bind CDK8.\n(§1) CO2 atmosphere incubator for 24 h. Then, medium with compound at the concentrations of 100, 20, 4, 0.8, 0.016 μM was added into each well for another 48 h and incubated with CCK-8 (10 μL) for 2 h at 37 °C. The absorbance value at 450 nm was measured by the microplate reader (PerkinElmer Envision).\nThe kinase inhibition was detected by ADP-Glo™ Kinase Assay (Promega) using a black 384-well plate. […] The data was collected by the microplate reader. […]\nwere broken by ultr asonic treatment and centrifuged at 12000 rpm for 20 min. The supernatant was analyzed by western blot. […]\nAfter co-treated with 2 μM biotinylated compound and compound 12 for 12 h, HCT-116 cells were lysed with NP-40 containing PMSF and centrifuged at 14000 r for 30 min at 4 °C. […] The samples were analyzed by western blot."}, "[2]": {"tested_on": "HT-29", "assay": "Antiproliferative CCK-8 assay, HT-29", "type": "cell-based", "conditions": "Homo sapiens; HT-29, CCK-8 assay, means ± SD; read-out: GC50 (the source's name)", "excerpt": "(§2) Compounds12, 13 and 30 were selected for further cell activity assessments based on the enzymatic activity assessment results. molm-13 and MV4-11(acute myeloid lineage leukaemia cells), MGC-803 (gastric cancer cell), MDA-MB-231(breast cancer cell), A375 (melanoma cell), A549 (lung cancer cell), HCT-116, SW-480 and HT-29 (colorectal cancer cells) were selected to evaluate antitumor activity in vitro, GES-1 (gastric mucosal epithelial cell) was selected to evaluate toxicity in vitro.\nas §1, with “Envision). […]” for “Envision).”"}, "[3]": {"tested_on": "SW480", "assay": "Antiproliferative CCK-8 assay, SW480", "type": "cell-based", "conditions": "Homo sapiens; SW480, CCK-8 assay, means ± SD; read-out: GC50 (the source's name)", "excerpt": "as §2\nas §1, with “Envision). […]” for “Envision).”"}, "[4]": {"tested_on": "MGC-803", "assay": "Antiproliferative CCK-8 assay, MGC-803", "type": "cell-based", "conditions": "Homo sapiens; MGC-803, CCK-8 assay, means ± SD; read-out: GC50 (the source's name)", "excerpt": "as §2\nas §1, with “Envision). […]” for “Envision).”"}, "[5]": {"tested_on": "MV4-11", "assay": "Antiproliferative CCK-8 assay, MV4-11", "type": "cell-based", "conditions": "Homo sapiens; MV4-11, CCK-8 assay, means ± SD; read-out: GC50 (the source's name)", "excerpt": "as §2\nas §1, with “Envision). […]” for “Envision).”"}, "[6]": {"molecular_target": "CDK2 (Homo sapiens, UniProt P24941)", "assay": "CDKs selectivity, CDK2", "type": "biochemical", "excerpt": "CDK7 and CDK9 with the same transcription function and CDK2 and CDK6 were selected to evaluate the selectivity of compound 12."}, "[7]": {"molecular_target": "T1, CDK8", "assay": "CDK8 enzyme activity assay (ADP-Glo Kinase Assay)", "type": "biochemical", "conditions": "means ± SD", "experimental": "Some of them with high inhibition rates were further measured for their IC50 values. Compound SEL-120 34 A was selected as a positive control. [table] [table] page 14: CO2 atmosphere incubator for 24 h. Then, medium with compound at the concentrations of 100, 20, 4, 0.8, 0.016 μM was added into each well for another 48 h and incubated with CCK-8 (10 μL) for 2 h at 37 °C. The absorbance value at 450 nm was measured by the microplate reader (PerkinElmer Envision). 1.4 Kinase Assay The kinase inhibition was detected by ADP-Glo™ Kinase Assay (Promega) using a black 384-well plate. The active CDK8 kinase was diluted in mixture (5 ng enzyme, 0.5 μg substrate, 50 μM DTT, 1 μL reaction buffer and added ddH2O to 3 μL each well) and the final ATP concentrations of was 50 μM. After incubation at room temperature, ADP-Glo™ solution and kinase detection reagent was added. The data was collected by the microplate reader. 1.5 Cellular thermal shift assay HCT-116 cells were cultured in cell culture dishes and treated with 5 μM compound 12 for 4 h. HCT-116 cells were collected, washed by PBS and cell suspensions were divided into 12 PCR tubes equally. Then,11 tubes were heated at 37, […] After that, cells were broken by ultr asonic treatment and centrifuged at 12000 rpm for 20 min. The supernatant was analyzed by western blot. 1.6 Biotin-pulldown assay After co-treated with 2 μM biotinylated compound and compound 12 for 12 h, HCT-116 cells were lysed with NP-40 containing PMSF and centrifuged at 14000 r for 30 min at 4 °C. Then, 40 μL supernatant was used as the input by adding 10 μL 5×SDS loading buffer, and the remains were mixed with Streptavidin Agarose (Novex, Carlsbad, CA, USA). After 6 h incuba tion at 4 °C, the beads were washed three times using lysis buffer and resuspended in 2× SDS loading buffer. HEK -293T cells overexpressed flag -tagged CDK8 were treated using above method. The samples were analyzed by western blot."}},
  "data": [
    {"compound": "NC(=O)c1cccc(-c2cnc3[nH]cc(-c4ccoc4)c3c2)c1", "note": "[Compound 12, 3-(3-(furan-3-yl)-1H-pyrrolo[2,3-b]pyridin-5-yl)benzamide]", "values": [
      {"measurement": "Temperature at which CDK8 was degraded almost completely", "setting": "[1]", "result": 55, "unit": "°C"},
      {"measurement": "IC50", "setting": "[2]", "result": "8.26 ± 0.65", "unit": "µM"},
      {"measurement": "IC50", "setting": "[3]", "result": "6.05 ± 2.26", "unit": "µM"},
      {"measurement": "IC50", "setting": "[4]", "result": "11.7 ± 1.93", "unit": "µM"},
      {"measurement": "IC50", "setting": "[5]", "result": "0.03 ± 0.01", "unit": "µM"},
      {"measurement": "IC50", "setting": "[6]", "result": "> 1", "unit": "µM"},
      {"measurement": "inhibition at 0.2 µM", "setting": "[7]; CDK8, 200 nM, two experiments, read-out: Inhibition rate @ 200 nM (%)", "result": "80.9 ± 3.5", "unit": "%"},
      {"measurement": "IC50", "setting": "[7]; three experiments", "result": "0.0392 ± 0.0063", "unit": "µM"}
    ]}
  ]
}
